Experimental data taken from patent publication US11465989B2, “Guanidine compounds and use thereof” (IMMUNOMET THERAPEUTICS INC., priority 2014, dated 2022).
pIC50: −log10 of the molar value. Where a name gives a salt, the structure may show the parent alone.

Key:
[1] = tested on: A549 cells; assay: Inhibition of OCR (XF Analyzer); assay type: cell-based; conditions: Homo sapiens, A549, 24 h
Text: The electron transfer complex in mitochondria is composed of 5 complexes. The complex I accept electrons from NADH produced from glycolysis and TCA cycle and the electrons move to complex […] and the electron is finally transferred to O2 and water molecule is generated. During the electron transfer, proton gradient is generated and the chemical gradient is a driving source to synthesize ATP at complex V. The mitochondrial inhibition of complex I indirectly assessed by measuring the oxygen consumption rate (OCR) at complex IV. […] The solution outside of cells becomes acidic (lower pH) as lactate is transported to outside of cells. OCR and Extracellular acidification rate (ECAR) are determined by XF Analyzer (Seahorse Biosciences).
A549 cells were purchased from American Type Tissue Culture Collection ([…]) and cultured in RPMI 1640 supplied with 10% fetal bovine serum (FBS) and antibiotic-antimycotic (Lifetech, CA). A549 cells were separated with 0.5% Trypsin-EDTA and 3,000 cells were plated on 1 mg/ml poly-D-lysine (Sigma, P6407) coated XF 96 well […]. A549 cells were allowed to adhere to the wells for 24 hours under the condition of temperature, 37° C. and 5% CO2 The sensor cartridge of XF Analyzer was soaked in 200 Ad of Calibrant solution (Seahorse, MA) in a clear 96-well plate at 37° C. for 24 hours. The compounds of the present invention were diluted with RPMI 1640 without FBS, transferred to A549 cells on XF 96 well plate, and incubated further for 23 hours at 37° C. and 5% CO2. After incubation, the compound solution was exchanged with pre-warmed and pH adjusted (pH7.4) XF assay media (Seahorse) supplied with 15 mM D-glucose (Sigma), 15 mM sodium pyruvate (Lifetechnologies, CA) and 4 mM L-glutamine (Lifetechnologies, CA). The compounds of present invention were prepared in XF Assay media and added to the assay plate. The assay plate was equilibrated in XF Analyzer for 1 hour, and the reading were started by sensor cartridge. The cytotoxicity assay was followed using Cyquant (Lifetechnologies, CA) in order to calibrate the inhibition with cytotoxicity of compounds. The concentrations of the compounds were tested at […] and IC50 value was obtained from the inhibited values. That is, from OCR inhibition values at each concentration of the compound, IC50 was calculated according to Prism's dose response curve fitting.
In Table 1, the levels of OCR IC50 are evaluated by the following.

[2] = tested on: SK-MEL-28 cells; assay: Cytotoxicity in low glucose condition (MTT); assay type: cell-based; conditions: Homo sapiens, SK-MEL-28, 0.75 mM glucose, 72 hours, read-out: SK-MEL-28 0.75 mM glucose Cell viability (IC50 ia)
Text: The inhibition of oxidative phosphorylation (OXPHOS) is not cytotoxic to cells in normal glucose condition, because it is postulated that normal cells have compensatory mechanism under energy stress conditions such as low glucose. However OXPHOS inhibitors show cytotoxic effect on cells in the glucose deprived condition (BirsoyK, 2014). The glucose deprived condition is observed in tumor microenvironment potentially due to poor angiogenesis. Therefore the OXPHOS inhibitors may show anti-cancer effect on cancer cells in low glucose condition that may depict tumor microenvironment.
The compounds of the present invention were evaluated their cytotoxicity in SK-MEL-28, melanoma with 0.75 mM glucose supplement. The cytotoxic effect is compared with the cytotoxicity caused by phenformin. The cytotoxicity in low glucose condition is correlated with inhibition of oxygen consumption in mitochondria.
SK-MEL-28 (HTB-72) is a melanoma cell line obtained from ATCC (MA) and cultured in RPMI 1640 media (Lifetechnologies, CA) with supplement of 10% FBS and antibiotic-antimycotic (Lifetechnologies, CA). RPMI 1640 (-Glucose) was used to prepare low glucose media and 0.75 mM glucose was supplied with D-(+)-glucose solution from Sigma. SK-MEL-28 cells were separated from culture plate using 0.5% trypsin-EDTA and 5,000 cells were plated in 96-well plate with low glucose media. After incubation at 37° C. for 24 hour, 5% CO2, the cells were treated with the compounds of present invention in FBS-free media for 72 hours. The cytotoxicity was measured by the MTT (AMRESCO, OH) assay. NADH-dependent cellular oxidoreductase reduces MTT to its insoluble […] with purple color. The enzyme depends on cell number or energy state of cells. 10 μl of 5 mg/ml MIT solution was added to each well of the assay plate and skip the well for blank. The plate was incubated at 37° C. and 5% CO2 for 2 hours. The MTT solution was removed from each well and 100 μl of DMSO was added. The plate was read by VICTOR X3 Multilabel Counter at the wavelength of 550 nm. In Table 2, the levels of IC50 are evaluated by the following criteria.

SMILES: N=C(N)NC(=N)NCCc1ccc(I)cc1 [Example 71, N-1-(4-iodo)phenethylbiguanide hydrochloride]
- pIC50 [1]: < 5.30
- pIC50 [2]: < 5.00

SMILES: COc1cc(Br)ccc1CCNC(=N)NC(=N)N [Example 81, N1-(2-methoxy-4-bromo)phenethylbiguanide hydrochloride]
- pIC50 [1]: > 5.70
- pIC50 [2]: 5.00 to 5.30

SMILES: Cc1ccc(CCNC(=N)N)cc1C [Example 133, 1-(3,4-dimethylphenethyl)guanide hydrochloride]
- pIC50 [1]: > 5.70
- pIC50 [2]: 5.00 to 5.30

SMILES: CNC(=N)NC(=N)NCCc1ccc(Cl)c(Cl)c1 [Example 122, N-1-(3,4-dichloro)phenethyl-N5-methylbiguanide hydrochloride]
- pIC50 [1]: < 5.30
- pIC50 [2]: 5.00 to 5.30

SMILES: N=C(N)NC(=N)NCCc1ccc(Cl)c(Br)c1 [Example 76, N-1-(3-bromo-4-chloro)phenethylbiguanide hydrochloride]
- pIC50 [1]: 5.30 to 5.70
- pIC50 [2]: > 5.30

SMILES: N=C(N)NCCc1cccc2c1CCCC2 [Example 192, hydrochloride]
- pIC50 [1]: 5.30 to 5.70

SMILES: Cc1ccc(CNC(=N)N)cc1 [Example 151, 1-(4-methylbenzyl)guanide hydrochloride]
- pIC50 [1]: < 5.30

SMILES: COc1cccc(CCNC(=N)NC(=N)N)c1 [Example 8, N-1-(3-methoxy)phenethylbiguanide hydrochloride]
- pIC50 [1]: 5.30 to 5.70

SMILES: N=C(N)NC(=N)NCCCc1ccc(C2CC2)cc1 [Example 47, N-1-1-(3-(4-cyclopropylphenyl)propyl)biguanide hydrochloride]
- pIC50 [1]: < 5.30

SMILES: N=C(N)NCc1ccc(Br)cc1 [Example 184, 1-(4-bromobenzyl)guanide hydrochloride]
- pIC50 [1]: < 5.30

SMILES: N=C(N)NCCc1cccc(F)c1 [Example 178, 1-(3-fluorophenethyl)guanide hydrochloride]
- pIC50 [1]: < 5.30

SMILES: N=C(N)NCCCc1ccccc1 [Example 165, 1-(3-phenylpropyl)guanide hydrochloride]
- pIC50 [1]: 5.30 to 5.70

SMILES: CN(CCCc1ccccc1)C(=N)N [Example 188, 1-methyl-1-(3-phenylpropyl)guanide hydrochloride]
- pIC50 [1]: < 5.30

SMILES: N=C(N)NCc1ccc2ccccc2c1 [Example 198, 11-(naphthalen-2-ylmethyl)guanide hydrochloride]
- pIC50 [1]: 5.30 to 5.70

SMILES: CC(C)c1ccc(CCNC(=N)NC(=N)N)cc1 [Example 14, N-1-(4-isopropyl)phenethylbiguanide hydrochloride]
- pIC50 [1]: < 5.30

SMILES: Cc1cc(CCNC(=N)N)ccc1Cl [Example 206, 1-(4-chloro-3-methylphenthyl)guanide hydrochloride]
- pIC50 [1]: > 5.70

SMILES: N=C(N)NCCc1ccc(Cl)c(Cl)c1 [Example 140, 1-(3,4-dichlorophenethyl)guanide hydrochloride]
- pIC50 [1]: 5.30 to 5.70

SMILES: C/N=C(\NC)NC(=N)NCCc1ccc(Cl)c(Cl)c1 [Example 132, N-1-methyl-N-2-methyl-N-5-(3,4-dichloro)phenethylbiguanide hydrochloride]
- pIC50 [2]: < 5.00

SMILES: N=C(N)NC(=N)NCCc1ccc(Cl)cc1Cl [Example 4, N-1-(2,4-dichloro)phenethylbiguanide hydrochloride]
- pIC50 [1]: 5.30 to 5.70

SMILES: Cc1ccc(CCNC(=N)N)c(C)c1 [Example 155, 1-(2,4-dimethylphenethyl)guanide hydrochloride]
- pIC50 [1]: > 5.70

SMILES: N=C(N)NC(=N)NCc1cccc(Cl)c1 [Example 41, N-1-(3-chloro)benzylbiguanide hydrochloride]
- pIC50 [1]: < 5.30

SMILES: COc1ccc(CCCNC(=N)N)cc1 [Example 185, 1-(3-(4-methoxyphenyl)propyl)guanide hydrochloride]
- pIC50 [1]: < 5.30

SMILES: Cc1ccc(CNC(=N)NC(=N)N)cc1C [Example 28, N-1-(3,4-dimethyl)benzylbiguanide hydrochloride]
- pIC50 [1]: 5.30 to 5.70

SMILES: N=C(N)NC(=N)NCCc1ccc(Br)c(Cl)c1 [Example 73, N-1-(4-bromo-3-chloro)phenethylbiguanide hydrochloride]
- pIC50 [1]: 5.30 to 5.70

SMILES: N=C(N)NCCC1CC1 [Example 190, 1-(2-cyclopropylethyl)guanide hydrochloride]
- pIC50 [1]: 5.30 to 5.70

SMILES: N=C(N)NC(=N)NCCc1ccccc1F [Example 9, N-1-(2-fluoro)phenethylbiguanide hydrochloride]
- pIC50 [1]: < 5.30

SMILES: Cc1ccc(CCNC(=N)N)cc1 [Example 138, 1-(4-methylphenethyl)guanide hydrochloride]
- pIC50 [1]: 5.30 to 5.70

SMILES: CCCNC(=N)NC(=N)NCCc1ccc2c(c1)CCCC2 [Example 127, N-1-propyl-N-5-(2-(5,6,7,8-tetrahydronaphthalen-2-yl)ethyl) biguanide hydrochloride]
- pIC50 [1]: < 5.30

SMILES: N=C(N)NC(=N)NCCc1ccc(CCc2ccccc2)cc1 [Example 27, N-1-(4-phenethyl)phenethylbiguanide hydrochloride]
- pIC50 [1]: 5.30 to 5.70

SMILES: Cc1ccc(CCNC(=N)NC(=N)N)cc1 [Example 10, N-1-(4-methyl)phenethylbiguanide hydrochloride]
- pIC50 [1]: < 5.30

SMILES: CNC(=N)NC(=N)NCCc1ccccc1 [Example 124, N-1-methyl-N-5-phenethylbiguanide hydrochloride]
- pIC50 [2]: < 5.00

SMILES: CONC(=N)NC(=N)NCCc1ccc(Cl)c(Cl)c1 [Example 129, N-1-methoxy-N-5-(3,4-dichloro)phenethylbiguanide hydrochloride]
- pIC50 [2]: < 5.00

SMILES: C[C@H](CNC(=N)N)c1ccccc1 [Example 175, (S)-1-(2-phenylpropyl)guanide hydrochloride]
- pIC50 [1]: < 5.30

SMILES: N=C(N)NC(=N)NCc1ccc2ccccc2c1 [Example 45, hydrochloride]
- pIC50 [1]: 5.30 to 5.70

SMILES: N=C(N)NC(=N)NCCC1CCCCC1 [Example 32, N-1-2-cyclohexylethylbiguanide hydrochloride]
- pIC50 [1]: < 5.30

SMILES: N=C(N)NCCc1ccc(CCc2ccccc2)cc1 [Example 187, 1-(4-phenethylphenethyl)guanide hydrochloride]
- pIC50 [1]: < 5.30

SMILES: Cc1cc(CNC(=N)N)ccc1Br [Example 207, 1-(4-bromo-3-methylbenzyl) guanide hydrochloride]
- pIC50 [1]: < 5.30

SMILES: N=C(N)NC(=N)NCc1ccc(Oc2ccccc2)cc1 [Example 56, N-1-(4-phenoxy)benzylbiguanide hydrochloride]
- pIC50 [1]: < 5.30

SMILES: N=C(N)NC1Cc2ccccc2C1 [Example 137, 1-(2,3-dihydro-1H-inden-2-yl)guanide hydrochloride]
- pIC50 [1]: 5.30 to 5.70

SMILES: N=C(N)NC(=N)NCc1cccc2ccccc12 [Example 31, hydrochloride]
- pIC50 [1]: < 5.30

SMILES: N=C(N)NCc1ccc(-c2ccccc2)cc1 [Example 200, N-(4-phenyl)benzyl guanide hydrochloride]
- pIC50 [1]: 5.30 to 5.70

SMILES: N=C(N)NCc1ccc(Oc2ccccc2)cc1 [Example 203, 1-(4-phenoxybenzyl) guanide hydrochloride]
- pIC50 [1]: 5.30 to 5.70

SMILES: Cc1ccc(CCNC(=N)NC(=N)N)c(C)c1 [Example 16, N-1-(2,4-dimethyl)phenethylbiguanide hydrochloride]
- pIC50 [1]: 5.30 to 5.70

SMILES: CN(CCc1ccc(F)cc1)C(=N)N [Example 174, 1-(4-fluorophenethyl)-1-methyl guanide hydrochloride]
- pIC50 [1]: < 5.30
